Source: US7851637B2, “Compounds and methods for inhibiting the interaction of BCL proteins with binding partners” (Infinity Pharmaceuticals, Inc., priority 2004, dated 2010)
Like-named read-outs stand apart in the source and are kept apart here.

Experiments:
Bcl-xL = Bcl-xL (Homo sapiens, UniProt Q07817); assay: Bcl-xL binding affinity analysis (fluorescence polarization binding assay); design: scale not given here
Summary of the method: (§1)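 In vitro measurement of compound binding to each protein by fluorescence polarization, described as sensitive and quantitative.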

[1] = test system: Human Pancreatic Cancer Cell Line Panc1; assay: Cell death assay (propidium iodide/Hoechst) in Panc1 cells with or without camptothecin; assay type: cell-based; details: 72 hours, % cell death by propidium iodide/Hoechst
Experimental: When RL-cells are exposed to isoxazolidine compounds of the present invention, the inhibitors show a dose-dependent cell-killing in the Alamar blue cytoxicity assay with IC50 values of from about 100 μM to about 1 μM (See Examples). When Panc1 cells are exposed to the isoxazolidine compounds of the present invention in combination with camptothecin, the inhibitors show a synergistic dose-dependent cell killing in the propidium iodide exclusion cell survival assay with IC50 values of from about 100 μM to about 1 μM (See Examples).
• 1) Compounds were serially diluted in DMSO from a 9 mM stock to a final concentration of 0.004 mM in a 96 well plate. • 2) Assay plates were prepared by diluting compounds 310 fold into 150 ul of medium containing 10,000 cells/well, with or without 3 uM Camptothecin, resulting in a final DMSO concentration of 0.3% and a compound concentration range from 29 uM to […] for each compound. • 3) Assay plates were incubated at 37 C, 5% CO2 for 72 hours. • 4) After 72 hours, propidium iodide and Hoechst dye were added to each well according to manufacturer's instruction. • 5) Plates were imaged on a fluorescence microscope at wavelengths Ex560/Em650 (Propidium iodide) and Ex360/Em465 (Hoechst) • 6) MetaMorph imaging software was used to determine % cell death by dividing the number of propidium iodide stained cells (dead cells) by the number of Hoechst stained cells (all cells), multipled by 100, in each field.
Panc1 invitro cellular data is presented below for various compounds of the invention.

Bcl-2 = Bcl-2 (Homo sapiens, UniProt P10415); assay: Bcl-2 binding affinity analysis (fluorescence polarization binding assay)
Summary of the method: as §1

[2] = Homo sapiens, PANC-1, without camptothecin, read-out: Panc1 − Cpt IC50
[3] = with 3 uM Camptothecin, read-out: Panc1 + Cpt IC50
[4] = without camptothecin, read-out: Panc1 − Cpt IC50

Sequence of Bcl-2 (P10415 whole entry): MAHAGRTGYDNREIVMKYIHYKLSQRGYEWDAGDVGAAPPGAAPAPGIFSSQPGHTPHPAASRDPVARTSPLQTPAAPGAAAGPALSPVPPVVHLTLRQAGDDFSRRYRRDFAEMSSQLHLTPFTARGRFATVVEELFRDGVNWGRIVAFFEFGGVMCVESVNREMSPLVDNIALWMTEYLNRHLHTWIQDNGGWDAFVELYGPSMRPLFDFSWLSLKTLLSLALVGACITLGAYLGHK
Sequence of Bcl-xL (Q07817 whole entry): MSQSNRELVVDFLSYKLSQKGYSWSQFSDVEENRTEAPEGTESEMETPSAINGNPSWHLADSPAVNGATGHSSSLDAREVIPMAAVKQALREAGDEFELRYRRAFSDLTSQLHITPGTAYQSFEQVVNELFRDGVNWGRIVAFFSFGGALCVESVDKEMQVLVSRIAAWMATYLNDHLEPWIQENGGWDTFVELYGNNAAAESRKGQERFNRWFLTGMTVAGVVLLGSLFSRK

| SMILES | Bcl-XL binding affinity Ki (Bcl-xL) | IC50 [1, 2] [nM] | IC50 [1, 3] [nM] | Ki (Bcl-2) [nM] | IC50 [1, 4] [nM] |
| --- | --- | --- | --- | --- | --- |
| CC(O)C1C(CO)ON(Cc2cccc(CN(CCN(C)C)Cc3ccsc3)c2)C1C(=O)NC1CC2CC(C1C)C2(C)C (centres unmarked) [Compound 347] | ♯ | > 2500 | > 2500 | < 800 | – |
| CC(O)C1C(CO)ON(Cc2cccc(CN(CCN(C)C)Cc3cccs3)c2)C1C(=O)NC1CC2CC(C1C)C2(C)C (centres unmarked) [Compound 358] | ♯ | > 2500 | > 2500 | < 800 | – |
| CC(O)C1C(CO)ON(Cc2cccc(CN(CCN(C)C)Cc3ccc(F)cc3)c2)C1C(=O)NC1CC2CC(C1C)C2(C)C (centres unmarked) [Compound 376] | ♯ | 1800 to 2500 | 1300 to 1800 | < 800 | – |
| COc1ccc(CN(CCN(C)C)Cc2cccc(CN3OC(CO)C(C(C)O)C3C(=O)NC3CC4CC(C3C)C4(C)C)c2)cc1 (centres unmarked) [Compound 387] | ♯ | > 2500 | > 2500 | < 800 | – |
| C[C@@H]1[C@@H](NC(=O)[C@@H]2C([C@H](C)O)[C@H](CO)ON2Cc2cccc(CN(CCN(C)C)Cc3ccncc3)c2)C[C@H]2C[C@@H]1C2(C)C (some centres unmarked) [Compound 389] | ♯ | 1800 to 2500 | 1300 to 1800 | < 800 | – |
| CCC(C)C(CN(C)C)N(Cc1cccc(CN2OC(CO)C(C(C)O)C2C(=O)NC2CC3CC(C2C)C3(C)C)c1)Cc1ccccc1Br (centres unmarked) [Compound 416] | ♯ | > 2500 | > 2500 | < 800 | – |
| C[C@@H]1[C@@H](NC(=O)[C@@H]2C([C@H](C)O)[C@H](CO)ON2Cc2cccc(CN(Cc3ccccc3Br)[C@H](CN(C)C)C(C)(C)C)c2)C[C@H]2C[C@@H]1C2(C)C (some centres unmarked) [Compound 422] | ♯ | > 2500 | 1300 to 1800 | < 800 | – |
| CC(O)C1C(CO)ON(Cc2cccc(CN(Cc3ccccc3)C(Cc3ccccc3)CN(C)C)c2)C1C(=O)NC1CC2CC(C1C)C2(C)C (centres unmarked) [Compound 423] | ♯ | > 2500 | > 2500 | < 800 | – |
| CCN1CCCC1CN(Cc1ccccc1)Cc1cccc(CN2OC(CO)C(C(C)O)C2C(=O)NC2CC3CC(C2C)C3(C)C)c1 (centres unmarked) [Compound 426] | ♯ | > 2500 | > 2500 | < 800 | – |
| CC(O)C1C(CO)ON(Cc2cccc(CN(CCN3CCCCCC3)Cc3ccccc3)c2)C1C(=O)NC1CC2CC(C1C)C2(C)C (centres unmarked) [Compound 427] | ♯ | > 2500 | > 2500 | < 800 | – |
| CC(O)C1C(CO)ON(Cc2cccc(CN(CCN3CCCC3)Cc3ccccc3)c2)C1C(=O)NC1CC2CC(C1C)C2(C)C (centres unmarked) [Compound 430] | ♯ | > 2500 | > 2500 | < 800 | – |
| CC(O)C1C(CO)ON(Cc2cccc(CN(CCN3CCCCC3)Cc3ccccc3)c2)C1C(=O)NC1CC2CC(C1C)C2(C)C (centres unmarked) [Compound 433] | ♯ | > 2500 | > 2500 | < 800 | – |
| CC(O)C1C(CO)ON(Cc2cccc(CN(CCN3CCOCC3)Cc3ccccc3)c2)C1C(=O)NC1CC2CC(C1C)C2(C)C (centres unmarked) [Compound 434] | ♯ | > 2500 | > 2500 | < 800 | – |
| CC(O)C1C(CO)ON(Cc2cccc(CNC(CN(C)C)C3CCCCC3)c2)C1C(=O)NC1CC2CC(C1C)C2(C)C (centres unmarked) [Compound 443] | ♯ | > 2500 | > 2500 | < 800 | – |
| CC(O)C1C(CO)ON(Cc2cccc(CNC(CC3CCCCC3)CN(C)C)c2)C1C(=O)NC1CC2CC(C1C)C2(C)C (centres unmarked) [Compound 451] | ♯ | – | – | < 800 | > 2500 |
| CC(O)C1C(CO)ON(Cc2cccc(CNC(CN(C)C)c3ccccc3)c2)C1C(=O)NC1CC2CC(C1C)C2(C)C (centres unmarked) [Compound 452] | ♯ | > 2500 | > 2500 | < 800 | – |
| CC(O)C1C(CO)ON(Cc2cccc(CNC(Cc3ccccc3)CN(C)C)c2)C1C(=O)NC1CC2CC(C1C)C2(C)C (centres unmarked) [Compound 454] | ♯ | > 2500 | > 2500 | < 800 | – |
| CC(O)C1C(CO)ON(Cc2cccc(CNC(CN(C)C)CC(C)(C)C)c2)C1C(=O)NC1CC2CC(C1C)C2(C)C (centres unmarked) [Compound 455] | ♯ | > 2500 | > 2500 | < 800 | – |
| CC(C)C(CN(C)C)NCc1cccc(CN2OC(CO)C(C(C)O)C2C(=O)NC2CC3CC(C2C)C3(C)C)c1 (centres unmarked) [Compound 462] | ♯ | > 2500 | > 2500 | < 800 | – |
| CC(C)C(CN(C)C)NCc1cccc(CN2OC(CO)C(C(C)O)C2C(=O)NC2CC3CC(C2C)C3(C)C)c1 (centres unmarked) [Compound 463] | ♯ | – | – | < 800 | > 2500 |
| CC(O)C1C(CO)ON(Cc2cccc(CN(C)C(Cc3ccccc3)CN(C)C)c2)C1C(=O)NC1CC2CC(C1C)C2(C)C (centres unmarked) [Compound 464] | ♯ | > 2500 | > 2500 | < 800 | – |
| COc1c(CN2O[C@@H](CO)[C@@H]([C@H](C)O)[C@H]2C(=O)N[C@H]2C[C@H]3C[C@@H]([C@@H]2C)C3(C)C)cccc1-c1cccc(C(=O)N[C@H](CN(C)C)CC(C)(C)C)c1 [Compound 479] | ♯ | 1800 to 2500 | 1300 to 1800 | < 800 | – |
| COc1c(CN2O[C@@H](CO)[C@@H]([C@H](C)O)[C@H]2C(=O)N[C@H]2C[C@H]3C[C@@H]([C@@H]2C)C3(C)C)cccc1-c1cccc(C(=O)N[C@H](CC2CCCCC2)CN(C)C)c1 [Compound 489] | ♯ | > 2500 | 1800 to 2500 | < 800 | – |
| CCOc1c(CN2O[C@@H](CO)[C@@H]([C@H](C)O)[C@H]2C(=O)N[C@H]2C[C@H]3C[C@@H]([C@@H]2C)C3(C)C)cccc1-c1cccc(C(=O)N[C@H](CC(C)C)CN(C)C)c1 [Compound 494] | ♯ | > 2500 | > 2500 | < 800 | – |
| CCOc1c(CN2O[C@@H](CO)[C@@H]([C@H](C)O)[C@H]2C(=O)N[C@H]2C[C@H]3C[C@@H]([C@@H]2C)C3(C)C)cccc1-c1cccc(C(=O)NCCN(C)C)c1 [Compound 495] | ♯ | > 2500 | > 2500 | < 800 | – |
| C[C@@H]1[C@@H](NC(=O)[C@@H]2[C@H]([C@H](C)O)[C@H](CO)ON2Cc2cccc(-c3cccc(C(=O)NCCN(C)C)c3)c2OCC2CC2)C[C@H]2C[C@@H]1C2(C)C [Compound 497] | ♯ | > 2500 | > 2500 | < 800 | – |
| CC(O)C1C(CO)ON(Cc2cccc(C(=O)NC(CC3CCCCC3)CN(C)C)c2)C1C(=O)NC1CC2CC(C1C)C2(C)C (centres unmarked) [Compound 501] | ♯ | 1800 to 2500 | 1300 to 1800 | < 800 | – |
| CC(O)C1C(CO)ON(Cc2cccc(C(=O)NC(Cc3ccccc3)CN(C)C)c2)C1C(=O)NC1CC2CC(C1C)C2(C)C (centres unmarked) [Compound 508] | ♯ | > 2500 | > 2500 | < 800 | – |
